2 compounds from patent US11844841B2, “Dosing regimens and related compositions and methods” (Apellis Pharmaceuticals, Inc., priority 2017, dated 2023) can be followed below.

The nature of series [1]: Inhalation study, repeated dosing. The following applies: in vivo, inhaled or intranasal, 25 mg/kg/d; 7 day repeated dose study in the dog. How it is done:
(§1) Inhalation studies of single dose or repeated dosing were conducted in dog and cynomolgus monkey. […] These doses were 25 mg/kg/d in a 7 day repeated dose study in the dog, 80 mg/kg in a single dose study in the monkey, and 30 mg/kg/day in a 14 day repeated dose in the monkey.

The nature of series [2]: Phase 1 single and multiple ascending dose trial of inhaled (nebulized) CA28 in healthy volunteers. The series is classed as in vivo, human. The following applies: for adverse event: one subject. How it is done:
In the single ascending dose part of the trial, 16 subjects were enrolled in four cohorts of four subjects each.
Four subjects were enrolled in the first cohort of the multiple ascending dose part of the trial. These subjects were to receive 14 consecutive days of treatment with a 60 mg/day dose of the drug. […] The trial was paused and subsequently resumed, with subjects receiving 30 mg/day. […] The trial was then terminated.

Series [3] can be described thus: Inhalation studies, single dose and repeated dosing. The class given is in vivo, cynomolgus monkey. How it is done:
as §1

Series [4] has as its system RBCs from a patient with PNH. Put plainly: Modified Ham's test with flow cytometry for CD59 and C3d (Example 18). The class given is cell-based, human. How it is done: A modified Ham's test was performed to assess the ability of compstatin analogs to protect PNH RBCs from complement-mediated lysis. […] Exposure to heat inactivated human serum was used as a control representing no significant complement-mediated lysis as complement is inactivated by heat. Exposure to acidified human serum and magnesium (Mg^2+) in the absence of complement inhibitors (pane labeled Mg^2+) was used as a control representing maximum lysis.
Following incubation, cells were stained with antibodies to CD59 and C3d. CD59 level permitted the classification of the PNH RBCs as Type I, Type II, or Type III. Staining for C3d, a product of C3 activation and cleavage was used as a marker of C3 and C3 activation product deposition (loading). Flow cytometric analysis was performed to assess CD59 and C3d on RBC surfaces and to quantify the percentages of Type I, Type II, and Type III cells present in various samples.
Type I cells (shown in orange in FIG. 12) have normal levels of CD59. Type III cells (shown in blue in FIG. 12) have essentially no detectable CD59. […] Type II cells (shown in purple in FIG. 12) have reduced levels of CD59 as compared with normal or Type I cells and have an intermediate sensitivity to complement-mediated lysis. […] Type II cells may eventually lyse in the presence of activated complement but can accumulate a considerable amount of C3 activation products such as C3d before they do so. Reduction in or absence of lysis may be evidenced by increased levels of C3 or C3 activation products on Type II cells, as is evident by comparing the level of C3d on Type II cells in the no lysis panel with the level of C3d on Type II cells in the max. lysis panel in both FIGS. 12(A) and 12(B). […] A shift in the relative percentages of Type I, II, and III cells from the percentages present in the max. lysis control panels (Mg^2+) towards the percentages present in the no lysis control panels (heat inactivated serum) is indicative of protection against complement-mediated lysis. The column labeled % C′3 in Table 11 refers to the percentage of cells deemed “positive” for presence of C3 and C3 activation products (“C3 loading”).

In a further series the test system is PNH RBCs. Put plainly: Modified Ham's assay, comparison with Soliris (Example 19). The class given is cell-based, human. The following applies: CA28-2GS-BF 50 ug/ml. How it is done: Flow cytometry was performed after antibody staining using antibodies against CD59 and C3d. In this figure, quadrant 1 (Q1) and quadrant 3 (Q3) represent Type III cells. Quadrant 2 (Q2) and quadrant 4 (Q4) represent Types I and II cells. Q1 and Q2 represent cells with a significant and abnormally high amount of C3 activation product (e.g., C3d) deposition. Q3 and Q4 represent cells without significant C3d deposition or somewhat elevated level (right portion of Q4) but less so than Q2 cells.

The subject of series [5] is complement activation via the classical pathway. Put plainly: Classical complement inhibition assay (C3b deposition ELISA). The class given is biochemical, human. How it is done: Inhibitory activity of the synthesized compounds was assessed by measuring the effect of the compounds on complement activation via the classical pathway using a standard complement inhibition assay. The protocol measures C3b deposition in an ELISA format. C3b deposition monitored using this method is generated through complement activated by the classical pathway. Briefly, 96-well plates are coated with BSA. Human plasma, chicken ovalbumin (OVA), polyclonal anti-OVA antibodies and compound being tested (referred to as “drug”) are added and incubated, followed by addition of Anti-human C3 HRP-conjugated antibody. After an additional incubation, substrate is added and signal detected. Details of the protocol are as follows:
Protocol for Classical Complement Inhibition Assay
• Ninety-six well plate (polystyrene plate, Thermo Scientific, 9205) • Chicken OVA (Sigma A5503-5G) • Rabbit anti-chicken OVA (Abcam ab1221) • Blocking buffer (Startingblock buffer, Thermo Scientific 37538) • Veronal Buffer (5× concentration, Lonza 12-624E) • Human plasma (collected with Lepirudin at 50 ug/ml final concentration) • Goat anti-human C3 HRP-conjugated Ab (MP Biomedicals, 55237) • Tween-20 Wash Buffer (0.05% Tween 20-PBS buffer) • TMB (Peroxidase substrate, BD 555214)—1:1 mixture of BD 51-2607KC and 51-2606KC. • 1M H2SO4 Protocol: • 1. […]
Data was analyzed using GraphPad Prism5 software. […]
(In general: An ELISA detects its analyte on a solid surface through an enzyme-linked reagent.)

Take `CC[C@H](C)[C@H](NC(C)=O)C(=O)N[C@H]1CSSC[C@@H](C(=O)N[C@H](C(N)=O)[C@@H](C)O)NC(=O)[C@H](CCCNC(=N)N)NC(=O)[C@H](Cc2cnc[nH]2)NC(=O)[C@H](C)NC(=O)CNC(=O)[C@H](Cc2c[nH]c3ccccc23)NC(=O)[C@H](CC(=O)O)NC(=O)[C@H](CCC(N)=O)NC(=O)[C@H](Cc2cn(C)c3ccccc23)NC(=O)[C@H](C(C)C)NC1=O` [CA28]: the NOAEL (usually the highest dose or exposure tested at which no adverse effect was seen) at 168 h in series [1] worked out at 25 mg/kg/day. Moreover, the adverse event result in series [2] (30 mg/day inhaled, after 10 days of treatment) was “signs and symptoms consistent with a potential bacterial infection”; in series [2] (60 mg/day inhaled, after nine days of treatment), “signs and symptoms consistent with a potential bacterial infection”. The safety and tolerability result in series [2] (single inhaled doses 20, 60, 150 or 350 mg) was “well tolerated and no serious adverse events were reported”. The “highest inhaled dose tested, no drug-related findings” value in series [3] (14 day repeated dose in the monkey) is reported as 30 mg/kg/day. The NOAEL in series [3] (cynomolgus monkey, in vivo, inhaled or intranasal, 80 mg/kg, single dose study in the monkey) worked out at 80 mg/kg.
“CA28-2GS-BF: Bifunctional linear 40 kD PEG of the GS (glutaryl NHS ester) type coupled to two CA28-AEEAc-Lys moieties”: the “Type I % C′3” value was determined as 2.18% in series [4] (compound at 20 micrograms/ml); 2.84% in series [4] (compound at 40 micrograms/ml); 2.26% in series [4] (compound at 50 micrograms/ml); 2.05% in series [4] (compound at 60 micrograms/ml); 0.07% in series [4] (compound at 100 micrograms/ml); 0.02% in series [4] (compound at 200 micrograms/ml). Also, the “Type I % C′3” value in series [4] (compound at 500 micrograms/ml) was found to be 0.04%. Besides, the “Type II % C′3” value in series [4] (compound at 20 micrograms/ml) was 12.28%; in series [4] (compound at 60 micrograms/ml), 13.04%; in series [4] (compound at 100 micrograms/ml), 0.88%; in series [4] (compound at 200 micrograms/ml), 0.26%; in series [4] (compound at 500 micrograms/ml), 0.3%. Besides, the “Type III % C′3” value is given as 0.99% in series [4] (compound at 20 micrograms/ml); 1.21% in series [4] (compound at 40 micrograms/ml); 1.29% in series [4] (compound at 50 micrograms/ml); 1.44% in series [4] (compound at 60 micrograms/ml); 0.11% in series [4] (compound at 100 micrograms/ml); 0.02% in series [4] (compound at 200 micrograms/ml). Also, the “Type III % C′3” value in series [4] (compound at 500 micrograms/ml) stood at 0.05%. Besides, the “protection of PNH RBCs from complement-mediated lysis” value in series [4] (in the presence of 100 ug/ml or more compstatin analog) is “complete protection from complement-mediated lysis”. For the same compound, the “deposition of C3d on PNH RBCs” value in the series with PNH RBCs is reported as “essentially no deposition of C3d”. In series [5], the “complement inhibiting activity, comparison in words” value was “virtually identical”.
